The text below walks through data of the METLIN SMRT retention time set (Domingo-Almenara et al. 2019).

The structures appear in SMILES notation.

The data set in a line: gradient 5% acetonitrile 3 min, to 50% in 2 min, to 85% in 15 min, held 3 min, 100 µL/min. Particulars: column: Zorbax Extend-C18 2.1 x 50 mm; eluents: water / acetonitrile, 0.1% formic acid. In a few lines:
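Pure standards were run in mixtures of ~100 molecules by HPLC coupled to a quadrupole time-of-flight mass spectrometer. The column was a Zorbax Extend-C18 (2.1 × 50 mm, 1.8 μm) at 100 μL/min, with water and acetonitrile each containing 0.1% formic acid, in positive and negative ionization mode. Dead and dwell volumes were 40 μL and 900 μL. Retention time was taken from computationally picked adduct peaks, each manually inspected, with data collected over 3 months.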
On to `CC(=O)N1CCC(n2c(C)nc(C(=O)Nc3ccc4c(c3)OCCO4)c2C)CC1`, for which the RP-LC retention time turned out to be 612 s.
Take `COC(=O)C1=CN(c2cc(Cl)c(OC)cc2OC)c2ccccc2S1(=O)=O`: the RP-LC retention time is 903 s.
Regarding `Cc1nn(C)c2nc(OC(C)C(=O)NCCc3ccc(Cl)cc3)cc(C(F)(F)F)c12` (stereo not given), the RP-LC retention time came to 1080 s.
As for `O=C(COc1ccc(F)cc1)N1CCC2(CC1)NC(=O)N(Cc1ccc(Cl)cc1)C2=O`, the RP-LC retention time is 810 s.
As for `COc1ccc(C(=O)Nc2nc(-c3ccc4c(c3)NC(=O)C(C)O4)cs2)cc1` (stereo not given), the figure is 877 s; as for `CCCn1cnc2c(Sc3c([N+](=O)[O-])ncn3C)nc(N)nc21`, 681 s; as for `O=C(Nc1cc(F)ccc1F)c1c(O)c2cccnc2n(-c2ccc(F)cc2)c1=O`, 1270 s.
Then `O=C(c1cccs1)N1[C@H]2CC[C@@H]1c1cnc(-c3ccc(F)cc3)nc1C2`, with 979 s; and `COc1cc(-c2noc(-c3nc(-c4ccccc4F)no3)n2)cc(OC)c1OC`, with 1140 s.
Then `COc1ccc(-c2nc3ncc4c(=O)n(CCc5ccc(OC)c(OC)c5)ccc4n3n2)cc1`, with 854 s; and `CC(C)C(=O)N1CCN(c2nc(CN3CCCCC3)cs2)CC1`, with 603 s; and `COc1ccc(S(=O)(=O)N2CC3CN(C(=O)c4cc(C)oc4C)CC(C2)O3)cc1`, with 785 s.
Molecule `CC(Oc1ccccc1)C(=O)N1CCc2c(c(C(=O)NCc3ccc4c(c3)OCO4)nn2C)C1` (stereo not given) came in with an RP-LC retention time of 818 s.
As for `Cc1c(NC(=O)C2CCC2)c(=O)n(-c2ccccc2)n1C`, the figure is 596 s; as for `CCc1ccccc1NC(=O)N1CCC2(CC1)NC(=O)c1ccccc1N2C`, 731 s.
On to `COc1ccccc1CCC(=O)NC(C)C(=O)Nc1nc2ccccc2[nH]1` (stereo not given), for which the RP-LC retention time was 658 s.
Then `Cn1nnc2cc(CNC(=O)c3cccnc3)ccc21`, with 566 s.
As for `O=C(CCCn1c(=O)c2cccn2c2ccc(F)cc21)Nc1ccc2c(c1)OCCO2`, the figure is 642 s.
`O=C(c1ccc(-n2c(-c3ccccc3)nc3cccnc32)cc1)N1CCN(c2ccccn2)CC1` yielded an RP-LC retention time of 613 s.
`CCCOc1ccc(CNC(=O)c2cnc(OC)nc2)cc1` registered an RP-LC retention time of 803 s.
`CCCNC(=O)C1CCCN(c2ccc(SCC(=O)Nc3c(F)cccc3F)nn2)C1` (stereo not given) displayed an RP-LC retention time of 628 s.
The molecule `Cc1ccnc(Nc2nc(-c3ccccc3C)cs2)c1` came in with an RP-LC retention time of 821 s.
As for `CCNC(=O)C1CCN(c2nccc3sccc23)CC1`, the figure is 558 s; as for `C=CCN(CC=C)c1nc(-c2ccc(Cl)cc2Cl)nc2ccccc12`, 933 s.
Regarding `CCCCN1CCN(C(=O)c2cn(-c3cc(N4CCSCC4)ncn3)cn2)CC1`, the RP-LC retention time was 639 s.
Turning to `CCc1onc(C)c1C1CCCN1C(=O)Nc1ccc(OC)c(OC)c1` (stereo not given), the RP-LC retention time stood at 796 s.
Then `Cc1cc(NC(=O)CN(C)c2nc3c(Cl)cccc3s2)no1`, with 809 s; and `CCn1c(=O)sc2cc(S(=O)(=O)N3CCC(C(=O)NCc4ccco4)CC3)ccc21`, with 792 s; and `Cc1sc(-c2cc(C(F)(F)F)on2)cc1S(=O)(=O)N1CCN(C2CCCCC2)CC1`, with 857 s.
As for `CN(C(=O)Cn1ccn2nc(-c3ccccc3)c(CO)c2c1=O)c1ccccc1`, the figure is 774 s; as for `O=C(N[C@H]1C[C@@H]2C[C@H]1CN2C(=O)c1ccoc1)c1ccccc1`, 663 s; as for `CN1C(=O)NC(c2ccccc2C(F)(F)F)C2=C1CN(CCC(=O)N1CCCC1)C2=O` (stereo not given), 598 s.
With `COc1ccc(NC(=O)c2c[nH]c3ncccc23)cc1`, the RP-LC retention time was found to be 673 s.
Take `O=C(Cn1nc2n(c1=O)CCCC2)Nc1cccc(Br)c1`: the RP-LC retention time is 686 s.
Then `CCCN(C(=O)CC(=O)OC)c1nc(-c2ccc(C)cc2)cs1`, with 1160 s.
As for `C[C@@H](CN1CCC(Cc2ccccc2)CC1)[C@@H](O)c1ccc(O)cc1`, the figure is 737 s; as for `CCn1cc(CN2CCCC(Cn3cc(COC)nn3)C2)c2ccccc21` (stereo not given), 565 s.
Then `Cc1cccc(Nc2c(-c3ccc(N(C)C)cc3)nc3ncccn23)c1`, with 745 s; and `CCCN(CCC)[C@@H]1CCc2cccc(O)c2C1`, with 691 s; and `CCCn1c(=O)sc2cc(S(=O)(=O)N3CCC(C(=O)Nc4ccc(CC)cc4)CC3)ccc21`, with 929 s.
Turning to `CCOC(=O)c1cc2n(n1)CC(C)(C(=O)NC1CCCC1)N(Cc1cccc(F)c1)C2=O` (stereo not given), the RP-LC retention time was found to be 907 s.
Molecule `CN(CCc1noc(-c2ccc(C(=O)N3CCCC3)cc2)n1)C(=O)c1ccccc1Br` displayed an RP-LC retention time of 736 s.
Regarding `Cc1cccc(NS(=O)(=O)c2ccc3nnc(C)n3c2)c1`, the RP-LC retention time was 687 s.
Turning to `CCc1onc(C)c1C1CCCN1C(=O)Nc1cc(C)ccc1OC` (stereo not given), the RP-LC retention time stood at 935 s.
In turn, `O=C(c1cccc(Br)c1)N1CCN(c2nnc3ccccn23)CC1` gave an RP-LC retention time of 662 s.
The molecule `COCc1cc(=O)n2c(n1)N(Cc1cccc(C#N)c1)CC2` returned an RP-LC retention time of 669 s.
As for `O=c1ccc(S(=O)(=O)N2CCOCC2)cn1Cc1ccccc1F`, the figure is 723 s.
As for `CC(C)CCNC(=O)c1ccc2c(c1)NC(=O)C1CCCCN21` (stereo not given), the figure is 813 s; as for `COc1ccc(-c2noc(-c3nnn4c3COC(c3ccc(F)cc3)C4)n2)cc1OC` (stereo not given), 1020 s; as for `Cc1cc(C)n2nc(SCC(=O)N(C)c3ccccc3)nc2n1`, 705 s.
As for `CC(C)N(C(=O)Cn1c(C2CC(=O)N(Cc3ccccc3)C2)nc2ccccc21)C(C)C` (stereo not given), the figure is 764 s; as for `O=C(COc1ccccc1)Nc1ccccc1-c1nc2ccccc2s1`, 1320 s.
`CC(Oc1ccc(Cl)cc1)C(=O)N1CCCN(c2cc(-c3ccc(Br)cc3)[nH]n2)CC1` (stereo not given) gave an RP-LC retention time of 892 s.
Turning to `O=C1CC(c2nc(-c3ccccn3)no2)CN1c1ccc2c(c1)OCO2` (stereo not given), the RP-LC retention time came to 707 s.
As for `CN1c2ccccc2C(=O)NC12CCN(C(=O)c1cccc(Cl)c1)CC2`, the figure is 756 s; as for `O=C(Nc1ccc2c(c1)N(C(=O)c1ccco1)CC2)c1ccc2c(c1)OCO2`, 770 s; as for `O=S(=O)(CCOc1ccccc1)NCc1ccccc1`, 674 s.
Then `O=S(=O)(c1cccc(Cl)c1)N1CC(F)(F)C[C@H]1CN1CCc2ccccc2C1`, with 788 s.
The molecule `COc1ccccc1C(=O)Oc1ccc(N(C)C2=NS(=O)(=O)c3ccccc32)cc1` showed an RP-LC retention time of 910 s.
Then `Cc1ccc2c(Nc3ccccc3C)c(-c3nc(C)no3)cnc2n1`, with 743 s; and `CC(C)N1CCC2(CC1)N=C(c1ccc3c(c1)OCO3)CC(c1ccccc1O)N2` (stereo not given), with 593 s; and `CCCN(C(C)=O)c1nc(-c2ccc(C)cc2)cs1`, with 1190 s.
Molecule `O=C(c1ccc2c(c1)OCO2)N1CCC2(CC1)N=C(c1ccccc1)NO2` yielded an RP-LC retention time of 858 s.
Then `CCCCN1C(=O)CN(C2CCCCC2)C(=O)C1c1ccc(OC)c(OC)c1` (stereo not given), with 877 s; and `CCN(CC)S(=O)(=O)c1ccc2c(c1)N(CC(=O)N1CCCCCC1)C(=O)C1CCCCN21` (stereo not given), with 996 s.
As for `CCOC(=O)N1CCC(NC(=O)c2cc3sc(Cl)cc3n2CC)CC1`, the figure is 985 s; as for `CC1(C)C(=O)N(CC(=O)Nc2cccc(F)c2)c2ccccc21`, 886 s.
Then `CCNC(=O)C1CCCN(C(=O)Nc2ccc(NC(=O)Nc3ccc(OC)cc3)cc2)C1` (stereo not given), with 678 s.
In turn, `Clc1cccc(CNc2cc(-n3ccnc3)ncn2)c1` yielded an RP-LC retention time of 589 s.
Then `O=S(=O)(NCC1CCN(Cc2ccco2)CC1)c1ccc2c(c1)CCCC2`, with 603 s; and `N#CC1=C(SCC(=O)NCc2ccccc2)NC(=O)CC1c1cccc([N+](=O)[O-])c1` (stereo not given), with 803 s; and `COc1ccc(OCc2noc(CNC(=O)C3(c4ccccc4)CCOCC3)n2)cc1`, with 802 s.
For the molecule `Cn1nccc1C(=O)Nc1ccsc1-c1nc(-c2ccc(F)cc2)no1`, the RP-LC retention time was 1260 s.
As for `COc1ccc(NC(=O)Cn2c(N3CCOCC3)nc(C)cc2=O)c(OC)c1`, the figure is 669 s.
Take `Cc1cc(N2CCN(S(=O)(=O)c3ccccc3)CC2)nc(NC2CCCCC2)n1`: the RP-LC retention time turned out to be 776 s.
`COC(=O)CC(NC(=O)N1CCCn2nc(-c3cccnc3)cc2C1)c1ccccc1` (stereo not given) registered an RP-LC retention time of 596 s.
With `CCc1noc(NC(C)=O)c1-c1ccc(C)c(S(=O)(=O)Nc2cccc(C)c2C)c1`, the RP-LC retention time came out at 897 s.
Then `Cc1nc2c(sc3nc(-c4ccccc4)ccc32)c(=O)n1CC(=O)Nc1ccccc1Cl`, with 1090 s; and `COc1ccc(N2CC(c3nc(-c4cccnc4)no3)CC2=O)cc1OC` (stereo not given), with 665 s; and `Cc1nc(-c2cccc(-c3noc(CNS(=O)(=O)c4ccccc4)n3)c2)cs1`, with 977 s.
